Test results published in patent publication US20170275298A1, “INHIBITORS OF THE RENAL OUTER MEDULLARY POTASSIUM CHANNEL” (Merck Sharp & Dohme Corp., priority 2014, published 2017).

Target: T1, hROMK (hKir1.1) (Homo sapiens, UniProt P48048)
T1 construct: expressed in transfected cells
T1 sequence (P48048 1-391): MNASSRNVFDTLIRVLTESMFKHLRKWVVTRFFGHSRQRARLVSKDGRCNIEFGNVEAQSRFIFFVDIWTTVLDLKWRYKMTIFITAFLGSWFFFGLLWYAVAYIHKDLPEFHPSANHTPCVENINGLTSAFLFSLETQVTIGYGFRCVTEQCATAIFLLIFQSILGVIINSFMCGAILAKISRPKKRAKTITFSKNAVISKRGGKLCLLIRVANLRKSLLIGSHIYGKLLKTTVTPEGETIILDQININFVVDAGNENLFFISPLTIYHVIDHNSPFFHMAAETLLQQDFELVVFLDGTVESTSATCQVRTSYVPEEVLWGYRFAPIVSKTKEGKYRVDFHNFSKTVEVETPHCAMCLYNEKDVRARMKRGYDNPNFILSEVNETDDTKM
Test: Thallium Flux Assay (ROMK channel functional thallium flux assay)
Format: cell-based
Conditions: HEK293 cells stably expressing hROMK (hKir1.1); FluxOR thallium flux, FLIPR-Tetra, 30 min compound incubation; read-out: ROMK TI IC50
In short: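 HEK293 cells stably expressing hROMK (hKir1.1) loaded with FluxOR dye 90 min at ambient temperature, then compound 30 min before thallium/potassium stimulant (final 3 mM Tl/0.3 mM K). ROMK-sensitive flux defined by 3 μM standard inhibitor; data as % fluorescence change.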

| SMILES | IC50 |
| --- | --- |
| COc1cc(N2CCC3(CCN(C[C@H](O)c4ccc5c(c4C)COC5=O)CC3)C2=O)nc(OC)n1 [Example 42, (R)-2-(2,6-dimethoxypyrimidin-4-yl)-8-(2-hydroxy-2-(4-methyl-1-oxo-1,3-dihydroisobenzofuran-5-yl)ethyl)-2,8-diazaspiro[4.5]decan-1-one] | 842 nM |
| O=C1N(c2ccns2)CCC12CCN(C[C@H](O)c1ccc(-n3cnnn3)nc1)CC2 [Example 100, (R)-8-(2-(6-(1H-tetrazol-1-yl)pyridin-3-yl)-2-hydroxyethyl)-2-(isothiazol-5-yl)-2,8-diazaspiro[4.5]decan-1-one] | 769 nM |
| Cc1cc(N2CCC3(CCN(C[C@H](O)c4ccc5c(c4C)COC5=O)CC3)C2=O)ccn1 [Example 88, (R)-8-(2-hydroxy-2-(4-methyl-1-oxo-1,3-dihydroisobenzofuran-5-yl)ethyl)-2-(2-methylpyridin-4-yl)-2,8-diazaspiro[4.5]decan-1-one] | 130 nM |
| Cc1nc(-n2cnnn2)ccc1[C@@H](O)CN1CCC2(CC1)CN(c1ccc(=O)n(C)n1)CCO2 [Example 18, (R)-6-(9-(2-hydroxy-2-(2-methyl-6-(1H-tetrazol-1-yl)pyridin-3-yl)ethyl)-1-oxa-4,9-diazaspiro[5.5]undecan-4-yl)-2-methylpyridazin-3(2H)-one] | 376 nM |
| COc1ccc(N2CCC3(CCN(C[C@H](O)c4ccc5c(c4C)COC5=O)CC3)C2=O)nn1 [Example 36, (R)-8-(2-hydroxy-2-(4-methyl-1-oxo-1,3-dihydroisobenzofuran-5-yl)ethyl)-2-(6-methoxypyridazin-3-yl)-2,8-diazaspiro[4.5]decan-1-one] | 393 nM |
| CCOc1nccc(N2CCC3(CCN(C[C@H](O)c4ccc5c(c4C)COC5=O)CC3)C2=O)n1 [Example 44, (R)-2-(2-ethoxypyrimidin-4-yl)-8-(2-hydroxy-2-(4-methyl-1-oxo-1,3-dihydroisobenzofuran-5-yl)ethyl)-2,8-diazaspiro[4.5]decan-1-one] | 66.6 nM |
| Cc1c([C@@H](O)CN2CCC3(CC2)CCN(c2ccc(=O)n(C4CC4)n2)C3=O)ccc2c1COC2=O [Example 53, (R)-2-(1-cyclopropyl-6-oxo-1,6-dihydropyridazin-3-yl)-8-(2-hydroxy-2-(4-methyl-1-oxo-1,3-dihydroisobenzofuran-5-yl)ethyl)-2,8-diazaspiro[4.5]decan-1-one] | 40.6 nM |
| [2H]C([2H])(N1CCC2(CCN(c3ccc(=O)n(C)n3)C2=O)CC1)[C@@]([2H])(O)c1ccc2c(c1C)COC2=O (single isomer, unassigned) [Example 59] | 462 nM |
| COc1nccc(N2CCC3(CCN(C[C@H](O)c4ccc5c(c4C)COC5=O)CC3)C2)n1 [Example 14, (R)-5-(1-hydroxy-2-(2-(2-methoxypyrimidin-4-yl)-2,8-diazaspiro[4.5]decan-8-yl)ethyl)-4-methylisobenzofuran-1(3H)-one] | 420 nM |
| Cc1c([C@@H](O)CN2CCC3(CC2)CCN(c2nsc(Cl)n2)C3)ccc2c1COC2=O [Example 4, (R)-5-(2-(2-(5-chloro-1,2,4-thiadiazol-3-yl)-2,8-diazaspiro[4.5]decan-8-yl)-1-hydroxyethyl)-4-methylisobenzofuran-1(3H)-one] | 45.1 nM |
| Cn1nc(N2CCC3(CCN(C[C@@H](O)c4cccc(-n5cnnn5)c4)CC3)C2=O)ccc1=O [Example 96, (S)-8-(2-(3-(1H-tetrazol-1-yl)phenyl)-2-hydroxyethyl)-2-(1-methyl-6-oxo-1,6-dihydropyridazin-3-yl)-2,8-diazaspiro[4.5]decan-1-one] | 702 nM |
| Cc1c([C@@H](O)CN2CCC3(CC2)CCN(c2ccncn2)C3=O)ccc2c1COC2=O [Example 67, (R)-8-(2-hydroxy-2-(4-methyl-1-oxo-1,3-dihydroisobenzofuran-5-yl)ethyl)-2-(pyrimidin-4-yl)-2,8-diazaspiro[4.5]decan-1-one] | 434 nM |

Next, values leading:

| IC50 | SMILES |
| --- | --- |
| 68.3 nM | Cc1c([C@@H](O)CN2CCC3(CC2)CCN(c2cncc(N)n2)CC3)ccc2c1COC2=O [Example 129, (R)-5-(2-(9-(6-aminopyrazin-2-yl)-3,9-diazaspiro[5.5]undecan-3-yl)-1-hydroxyethyl)-4-methylisobenzofuran-1(3H)-one] |
| 492 nM | Cc1c([C@@H](O)CN2CCC3(CC2)CCN(c2cnc(C(F)(F)F)cn2)CC3)ccc2c1COC2=O [Example 125, (R)-5-(1-hydroxy-2-(9-(5-(trifluoromethyl)pyrazin-2-yl)-3,9-diazaspiro[5.5]undecan-3-yl)ethyl)-4-methylisobenzofuran-1(3H)-one] |
| 314 nM | Cc1c([C@@H](O)CN2CCC3(CC2)CCN(c2cncc(C(=O)O)n2)CC3)ccc2c1COC2=O [Example 121, (R)-6-(9-(2-hydroxy-2-(4-methyl-1-oxo-1,3-dihydroisobenzofuran-5-yl)ethyl)-3,9-diazaspiro[5.5]undecan-3-yl)pyrazine-2-carboxylic acid] |
| 23.8 nM | Cc1c([C@@H](O)CN2CCC3(CC2)CCN(c2cc(Cl)cnn2)CC3)ccc2c1COC2=O [Example 131, (R)-5-(2-(9-(5-chloropyridazin-3-yl)-3,9-diazaspiro[5.5]undecan-3-yl)-1-hydroxyethyl)-4-methylisobenzofuran-1(3H)-one] |
| 350 nM | COc1cnc(N2CCC3(CCN(C[C@H](O)c4ccc5c(c4C)COC5=O)CC3)CC2)cn1 [Example 141, (R)-5-(1-hydroxy-2-(9-(5-methoxypyrazin-2-yl)-3,9-diazaspiro[5.5]undecan-3-yl)ethyl)-4-methylisobenzofuran-1(3H)-one] |
| 364 nM | COC(=O)c1csc(N2CCC3(CCN(C[C@H](O)c4ccc5c(c4C)COC5=O)CC3)CC2)n1 [Example 140, (R)-methyl 2-(9-(2-hydroxy-2-(4-methyl-1-oxo-1,3-dihydroisobenzofuran-5-yl)ethyl)-3,9-diazaspiro[5.5]undecan-3-yl)thiazole-4-carboxylate] |
